Broadly, the IC50 is the concentration that inhibits the measured activity by half. Lower therefore signals greater potency.

This note sets out measurements from ChEMBL document CHEMBL2062394, “Azide-alkyne cycloaddition en route to novel 1H-1,2,3-triazole tethered isatin conjugates with in vitro cytotoxic evaluation” (Eur J Med Chem, 2012).

The test system of assay [1] is A549. The experiment in a line: Growth inhibition of human A549 cells at 1 uM after 48 hrs by SRB assay. The assay is classed as functional. The settings on record: A549, 48 h, read-out: GI. In general terms: Sulforhodamine B stains cellular protein and so reports cell mass.
The subject of assay [2] is A549. The experiment in a line: Growth inhibition of human A549 cells at 10 uM after 48 hrs by SRB assay. The assay is classed as functional. The settings on record: A549, 48 h, read-out: GI.
The subject of assay [3] is A549. The experiment in a line: Growth inhibition of human A549 cells at 50 uM after 48 hrs by SRB assay. The assay is classed as functional. The following applies: A549, 48 h, read-out: GI.
Assay [4] relates to A549. The experiment in a line: Growth inhibition of human A549 cells at 100 uM after 48 hrs by SRB assay. The settings on record: A549, 48 h, read-out: GI. The assay is classed as functional.
Assay [5] has as its system PC-3. The experiment in a line: Growth inhibition of human PC3 cells at 10 uM after 48 hrs by SRB assay. The assay is classed as functional. The following applies: PC-3, 48 h, read-out: GI.
Assay [6] relates to PC-3. The experiment in a line: Growth inhibition of human PC3 cells at 50 uM after 48 hrs by SRB assay. The assay is classed as functional. The settings on record: PC-3, 48 h, read-out: GI.
Assay [7] has as its system PC-3. The experiment in a line: Growth inhibition of human PC3 cells at 100 uM after 48 hrs by SRB assay. The following applies: PC-3, 48 h, read-out: GI. The assay is classed as functional.
In assay [8] the test system is THP-1. The experiment in a line: Growth inhibition of human THP1 cells at 10 uM after 48 hrs by SRB assay. The following applies: THP-1, 48 h, read-out: GI. The assay is classed as functional.
The test system of assay [9] is THP-1. The experiment in a line: Growth inhibition of human THP1 cells at 50 uM after 48 hrs by SRB assay. The settings on record: THP-1, 48 h, read-out: GI. The assay is classed as functional.
Assay [10] has as its system THP-1. The experiment in a line: Growth inhibition of human THP1 cells at 100 uM after 48 hrs by SRB assay. The following applies: THP-1, 48 h, read-out: GI. The assay is classed as functional.
For assay [11], the system named is Caco-2. The experiment in a line: Growth inhibition of human Caco2 cells at 10 uM after 48 hrs by SRB assay. The assay is classed as functional. The settings on record: Caco-2, 48 h, read-out: GI.
Assay [12] deals with Caco-2. The experiment in a line: Growth inhibition of human Caco2 cells at 50 uM after 48 hrs by SRB assay. The settings on record: Caco-2, 48 h, read-out: GI. The assay is classed as functional.
In assay [13] the test system is Caco-2. The experiment in a line: Growth inhibition of human Caco2 cells at 100 uM after 48 hrs by SRB assay. The assay is classed as functional. The settings on record: Caco-2, 48 h, read-out: GI.
Assay [14] deals with A549. The experiment in a line: Growth inhibition of human A549 cells after 48 hrs by SRB assay. The assay is classed as functional, cell-based. The following applies: for IC50: A549, 48 h.
Assay [15] concerns PC-3. The experiment in a line: Growth inhibition of human PC3 cells after 48 hrs by SRB assay. The assay is classed as functional, cell-based. The settings on record: for IC50: PC-3, 48 h.
In assay [16] the test system is THP-1. The experiment in a line: Growth inhibition of human THP1 cells after 48 hrs by SRB assay. The following applies: for IC50: THP-1, 48 h. The assay is classed as functional, cell-based.
Assay [17] deals with Caco-2. The experiment in a line: Growth inhibition of human Caco2 cells after 48 hrs by SRB assay. The assay is classed as functional, cell-based. The settings on record: for IC50: Caco-2, 48 h.
The test system of assay [18] is THP-1. The experiment in a line: Ratio of 5-fluorouracil IC50 to compound IC50 for human THP1 cells. The assay is classed as functional.
Assay [19] relates to THP-1. The experiment in a line: Growth inhibition of human THP1 cells at 20 uM after 48 hrs by SRB assay. The assay is classed as functional. The settings on record: THP-1, 48 h, read-out: GI.
Assay [20] relates to Caco-2. The experiment in a line: Growth inhibition of human Caco2 cells at 20 uM after 48 hrs by SRB assay. The assay is classed as functional. The following applies: Caco-2, 48 h, read-out: GI.
Assay [21] has as its system PC-3. The experiment in a line: Growth inhibition of human PC3 cells at 1 uM after 48 hrs by SRB assay. The assay is classed as functional. The following applies: PC-3, 48 h, read-out: GI.

A value given as a limit tells only on which side of the number the result lay.

`CC(=O)O[C@H]1C(=O)[C@@]2(C)[C@H]([C@H](OC(=O)c3ccccc3)[C@]3(O)C[C@H](OC(=O)[C@H](O)[C@@H](NC(=O)c4ccccc4)c4ccccc4)C(C)=C1C3(C)C)[C@]1(OC(C)=O)CO[C@@H]1C[C@@H]2O` [PACLITAXEL]: the inhibition of growth at 1 µM in the assay on A549 [1] was determined as 69%.
With `Cc1ccc2c(c1)C(=O)C(=O)N2Cc1cn(CCN2C(=O)C(=O)c3ccccc32)nn1`, the inhibition of growth at 10 µM with A549 [2] was found to be 35%; in the assay on PC-3 [5], 63%; in the assay with THP-1 [8] it was 89%; in the assay on Caco-2 [11] it was 0%. The inhibition of growth at 50 µM with A549 [3] was found to be 99%; with PC-3 [6], 100%; in the assay on THP-1 [9], 100%; in the assay with Caco-2 [12], 0%. For the same compound, the inhibition of growth at 100 µM in the assay on A549 [4] worked out at 100%; in the assay with PC-3 [7] it was 100%; with THP-1 [10] it was 100%; in the assay on Caco-2 [13], 17%. Also, the “growth inhibition (GI)” value in the assay with A549 [14], in the assay on PC-3 [15], with THP-1 [16] and in the assay with Caco-2 [17] was “Dose-dependent effect” throughout. The IC50 with A549 [14] is 18.4 µM; in the assay with PC-3 [15], 3.03 µM; in the assay on THP-1 [16], < 1 µM; with Caco-2 [17], > 100 µM. Besides, the “Ratio IC50” value in the assay with THP-1 [18] was found to be 2.
As for `O=c1[nH]cc(F)c(=O)[nH]1` [FLUOROURACIL], the inhibition of growth at 20 µM with THP-1 [19] was determined as 70%; in the assay with Caco-2 [20], 68%.
`CO[C@@]12[C@H](COC(N)=O)C3=C(C(=O)C(C)=C(N)C3=O)N1C[C@@H]1N[C@@H]12` [MITOMYCIN]: the inhibition of growth at 1 µM in the assay with PC-3 [21] stood at 60%.
For `Cc1ccc2c(c1)C(=O)C(=O)N2Cc1cn(CCN2C(=O)C(=O)c3cc(Cl)ccc32)nn1`, the inhibition of growth at 10 µM with A549 [2] was found to be 81%; with PC-3 [5], 36%; in the assay on THP-1 [8], 71%; with Caco-2 [11], 39%. For the same compound, the inhibition of growth at 50 µM with A549 [3] was found to be 95%; in the assay with PC-3 [6] it was 55%; in the assay with THP-1 [9], 91%; in the assay on Caco-2 [12], 52%. In addition, the inhibition of growth at 100 µM in the assay on A549 [4] turned out to be 98%; in the assay with PC-3 [7] it was 70%; in the assay on THP-1 [10], 92%; in the assay with Caco-2 [13] it was 56%. In addition, the “growth inhibition (GI)” value in the assay on A549 [14], in the assay with PC-3 [15], in the assay on THP-1 [16] and in the assay on Caco-2 [17] was “Dose-dependent effect” in each case. Moreover, the 50% inhibitory concentration (IC50) with A549 [14] was < 1 µM; in the assay with PC-3 [15], 32.6 µM; in the assay on THP-1 [16], < 1 µM; in the assay on Caco-2 [17], 44.9 µM. In addition, the “Ratio IC50” value in the assay on THP-1 [18] is reported as 2.
With `O=C1C(=O)N(CCn2cc(CN3C(=O)C(=O)c4ccccc43)nn2)c2ccccc21`, the inhibition of growth at 10 µM amounted to 96% with A549 [2], 99% with PC-3 [5], 100% in the assay on THP-1 [8] and 9% in the assay on Caco-2 [11]. The inhibition of growth at 50 µM with A549 [3] turned out to be 98%; with PC-3 [6] it was 100%; with THP-1 [9], 100%; with Caco-2 [12] it was 20%. In addition, the inhibition of growth at 100 µM came out at 99% with A549 [4], 100% in the assay on PC-3 [7], 100% in the assay with THP-1 [10] and 36% with Caco-2 [13]. The “growth inhibition (GI)” value with A549 [14], with PC-3 [15], in the assay on THP-1 [16] and in the assay on Caco-2 [17] was “Dose-dependent effect” each time. Further, the IC50 in the assay on A549 [14] is < 1 µM; in the assay with PC-3 [15], < 1 µM; in the assay with THP-1 [16], < 1 µM; in the assay with Caco-2 [17], > 100 µM. For the same compound, the “Ratio IC50” value with THP-1 [18] is reported as 2.
